Measured values reported in patent US4746664A, “Substituted-3,4-dihydro-4-(2,4,6-trimethoxyphenylimino)-2(1H)-pyrimidone s useful as cardiotonic, antihypertensive, cerebrovascular vasodilator and anti-platelet agent” (Fujisawa Pharmaceutical Co., Ltd., priority 1983, dated 1988).
Counter-ions that a name gives are not always drawn.

Experiments:
[1] = system: Mongrel dogs (left ventricular pressure, dp/dt max); assay: Cardiotonic activity (dp/dt max change, anesthetized dogs, i.v.); assay type: in vivo; details: Canis lupus familiaris, intravenous, read-out: dp/dt M.C. (percentage of dp/dt max changes)
Method: Test Method A (Cardiotonic activity): Mongrel dogs of either sex were anesthetized with sodium pentobarbital, 35 mg/kg, i.p. The animals were allowed to breathe spontaneously. The left carotid artery was isolated and a catheter (USCI, #8F) filled with heparinized saline was inserted and advanced into the left ventricle. the catheter was connected to a pressure transducer (Nihonkohden, MPU-0.5A) to measure the left ventricular pressure, from which dp/dt max was derived by analog computing. To measure the systemic blood pressure the left femoral artery was cannulated. The blood pressure pulse was used to trigger a heart rate meter. Another catheter was positioned in the vena cave through right femoral vein for injection of drugs. Systemic blood pressure, left ventricular pressure, dp/dt max and heart rate were recorded simultaneously on a polygram (Nihonkohden, RJG-4008). Test compound was dissolved in distilled water (0.2 ml/kg) or dimethyl sulfoxide (0.04 ml/kg) and injected into the femoral veing. The parameters after dosing were compared with those during the predosing period. Test results were represented in terms of percentage of dp/dt max changes (dp/dt M.C) calculated by following formula, and are shown in table 1. [formula]

[2] = system: uninephrectomized DOCA/saline male Wistar rats (mean arterial pressure); assay: Antihypertensive activity (DOCA hypertensive rats, oral); assay type: in vivo; details: 1.0 mg/kg
Method: Test Method D (Antihypertensive activity):
Five-week old male Wistar rats were uninephrectomized under anesthesia. Deoxycorticosterone acetate (DOCA) (30 mg/kg), suspended in peanut oil, was injected subcutaneously twice a week and 1% saline was substituted for the drinking water. Animals with mean blood pressure 150-200 mmHg were used for experiment between 5 and 7 weeks after surgery.
The test compounds were administered orally. Blood pressure was measured at the femoral artery by means of a pressure transducer and recorded as electrically integrated values of mean arterial pressure.

[3] = system: platelet aggregation induced by collagen; assay: Anti-platelet activity: collagen-induced aggregation of rabbit platelet rich plasma; assay type: cell-based; details: Oryctolagus cuniculus, 2 min, rabbit PRP, collagen 2.5 μg/ml, pH 7.4, 37° C., read-out: ID50 Collagen
Method: (§1) Test Method B (Anti-platellet activity):
(§2) Platelet rich plasma (PRP) which contains 6.5-7.5×10^8 platelet/ml was prepared from rabbit blood. To the 200 μl of PRP, 5 μl of calcium chloride (1 mM) and 50 μl of pH 7.4 Tris-acetate solution (5 mM) containing 120 mM NaCl and test compound were added successively, and then stirred for 2 min. at 37° C. To the solution, 5 μl of adenosine diphosphate (ADP) (2.5 μM) or collagen (2.5 μg/ml) was added as an aggregation inducer. Aggregation was measured by using an aggregometer (NKK HEMA TRACER 1).

[4] = system: Mongrel dogs (cerebral blood flow); assay: Cerebrovascular vasodilative activity (cerebral blood flow, anesthetized dogs, i.v.); assay type: in vivo; details: intravenous
Method: Test Method C (Cerebrovescular vasodilative activity):
Mongrel dogs of either sex were anesthetized with sodium pentobarbital (35 mg/kg. i.p.). After the external carotid artery was ligated, a flowmeter probe was fitted to the common carotid artery. Polyethylene cannulas were inserted in the femoral artery for measurement of blood pressure and in the saphenous vein for injection of drug. Blood pressure was measured with a pressure transducer and the arterial pulse was also used to trigger a heart rate meter. Blood pressure, heart rate and cerebral blood flow (C.B.F.) were recorded on a polygraph.
Test compound was dissolved in an equimolar solution of hydrochloric acid and diluted with water (0.2 ml/kg), and injected intravenously. The prarmeters after dosing were compared with those during the predosing period.

[5] = system: platelet aggregation induced by adenosine diphosphate (ADP); assay: Anti-platelet activity: ADP-induced aggregation of rabbit platelet rich plasma; assay type: cell-based; details: Oryctolagus cuniculus, 2 min, rabbit PRP, ADP 2.5 μM, pH 7.4, 37° C., read-out: ID50 ADP
Method: as §1, §2

COc1ccc(-c2cc(=Nc3cccnc3)n(C)c(=O)n2C)cc1OC [Example 50, 3,4-dihydro-6-(3,4-dimethoxyphenyl)-1,3-dimethyl-4-(3-pyridylimino)-2(1H)-pyrimidinone dihydrochloride]
change in vivo at 1 mg/kg [1]: 98%

CCn1c(-c2ccc(OC)c(OC)c2)cc(=Nc2c(C)cc(C)cc2C)n(C)c1=O [Example 72, 3,4-dihydro-6-(3,4-dimethoxyphenyl)-1-ethyl-3-methyl-4-(2,4,6-trimethylphenylimino)-2(1H)-pyrimidinone]
change in vivo at 0.01 mg/kg [1]: 12% | change in vivo at 0.1 mg/kg [1]: 95% | Effect Max (maximum decrease of blood pressure) [2]: 38.0% | IC50 [3]: 0.17 µM | C.B.F. increase ([4]; 0.1 mg/kg): 35.0% | C.B.F. increase ([4]; 1.0 mg/kg): 59.0% | IC50 [5]: 0.79 µM

COc1cc(OC)c(N=c2cc(-c3ccc(OC)c(OC)c3)n(C)c(=O)n2C)c(OC)c1 [Example 57, 3,4-Dihydro-6-(3,4-dimethoxyphenyl)-1,3-dimethyl-4-(2,4,6-trimethoxyphenylimino)-2(1H)-pyrimidinone]
change in vivo at 0.1 mg/kg [1]: 60% | change in vivo at 1 mg/kg [1]: 126% | Effect Max (maximum decrease of blood pressure) [2]: 44.0% | IC50 [3]: 0.42 µM | C.B.F. increase ([4]; 0.01 mg/kg): 59.0% | C.B.F. increase ([4]; 0.1 mg/kg): 57.0% | IC50 [5]: 0.3 µM

COc1ccc(-c2cc(=Nc3ccc(Cl)cc3C)n(C)c(=O)n2C)cc1OC [Example 49, 4-(4-Chloro-2-methylphenylimino)-3,4-dihydro-6-(3,4-dimethoxyphenyl)-1,3-dimethyl-2(1H)-pyrimidinone]
change in vivo at 0.1 mg/kg [1]: 68%

COc1ccc(-c2cc(=Nc3c(C)cc(C)cc3C)n(C)c(=O)n2C)cc1OC [Example 48, 3,4-dihydro-6-(3,4-dimethoxyphenyl)-1,3-dimethyl-4-(2,4,6-trimethylphenylimino)-2(1H)-pyrimidinone]
change in vivo at 0.01 mg/kg [1]: 43% | IC50 [3]: 0.15 µM | C.B.F. increase ([4]; 0.01 mg/kg): 40.0% | C.B.F. increase ([4]; 0.1 mg/kg): 57.0% | IC50 [5]: 0.24 µM

COc1ccc(-c2cc(=Nc3c(C)cc(C)cc3C)n(C)c(=O)[nH]2)cc1OC [Example 64, 3,4-Dihydro-6-(3,4-dimethoxyphenyl)-3-methyl-4-(2,4,6-trimethylphenylimino)-2(1H)-pyrimidinone]
change in vivo at 0.1 mg/kg [1]: 98% | change in vivo at 1 mg/kg [1]: 93%

COc1ccc(-c2cc(=Nc3c(C)cccc3C)n(C)c(=O)n2C)cc1OC [Example 58, 3,4-Dihydro-6-(3,4-dimethoxyphenyl)-1,3-dimethyl-4-(2,6-dimethylphenylimino)-2(1H)-pyrimidinone]
change in vivo at 0.1 mg/kg [1]: 84% | change in vivo at 1 mg/kg [1]: 145% | IC50 [3]: 0.19 µM | IC50 [5]: 0.34 µM

CCCn1c(-c2ccc(OC)c(OC)c2)cc(=Nc2c(C)cc(C)cc2C)n(C)c1=O [Example 65, 3,4-Dihydro-6-(3,4-dimethoxyphenyl)-3-methyl-1-n-propyl-4-(2,4,6-trimethylphenylimino)-2(1H)-pyrimidinone]
change in vivo at 0.1 mg/kg [1]: 50% | change in vivo at 1 mg/kg [1]: 206%

COc1ccc(-c2cc(=Nc3ccccc3)n(C)c(=O)n2C)cc1OC [Example 55, 3,4-Dihydro-6-(3,4-dimethoxyphenyl)-1,3-dimethyl-4-phenylimino-2(1H)-pyrimidinone]
C.B.F. increase ([4]; 0.1 mg/kg): 38.0% | C.B.F. increase ([4]; 1.0 mg/kg): 77.0%

COc1ccc(-c2cc(=Nc3cc(OC)c(OC)c(OC)c3)n(C)c(=O)n2C)cc1OC [Example 56, 3,4-Dihydro-6-(3,4-dimethoxyphenyl)-1,3-dimethyl-4-(3,4,5-trimethoxyphenylimino)-2(1H)-pyrimidinone]
change in vivo at 0.1 mg/kg [1]: 44% | change in vivo at 1 mg/kg [1]: 88% | C.B.F. increase ([4]; 0.1 mg/kg): 50.0% | C.B.F. increase ([4]; 1.0 mg/kg): 52.0%

COc1ccc(-c2cc(=Nc3c(C)cc(C)cc3C)[nH]c(=O)n2C)cc1OC [Example 69, 3,4-Dihydro-6-(3,4-dimethoxyphenyl)-1-methyl-4-(2,4,6-trimethylphenylimino)-2(1H)-pyrimidinone]
change in vivo at 0.01 mg/kg [1]: 45% | change in vivo at 0.1 mg/kg [1]: 42%

Nc1cc(-c2ccncc2)c[nH]c1=O [Amrinone, 3-Amino-5-(4-pyridyl)-2(1H)-pyridinone, reference compound]
change in vivo at 0.1 mg/kg [1]: 9% | change in vivo at 1 mg/kg [1]: 80%

COc1ccc(-c2cc(=Nc3ccc(O)cc3)n(C)c(=O)n2C)cc1OC [Example 59, 3,4-Dihydro-6-(3,4-dimethoxyphenyl)-1,3-dimethyl-4-(4-hydroxyphenylimino)-2(1H)-pyrimidinone]
change in vivo at 0.1 mg/kg [1]: 57% | change in vivo at 1 mg/kg [1]: 158% | IC50 [3]: 0.23 µM | IC50 [5]: 3.6 µM

COc1ccc(-c2cc(=Nc3c(C)cc(C)cc3C)n(C)c(=O)n2C)cc1 [Example 62, 3,4-Dihydro-1,3-dimethyl-6-(4-methoxyphenyl)-4-(2,4,6-trimethylphenylimino)-2(1H)-pyrimidinone]
change in vivo at 1 mg/kg [1]: 102%
